{"source": "paper PMC8286599", "about": "(Gut Pathogens, 2021)", "key": {"[1]": {"test_system": "MDR-S. Typhimurium strains", "experiment": "Stability assay, pH (MIC)", "text": "(§4) To explore the utility of phytochemicals as therapeutic molecules and their stability, individual phytochemicals were exposed to cationic salts, and different pH levels followed by analysing their MIC and MBC values against test strains as described earlier.\n(§5) Subsequent to exposure to varied conditions, the antimicrobial activity of the phytochemicals was estimated by determining their MIC and MBC values against all the selected MDR strains of EAEC, S. Enteritidis, and S. Typhimurium as described earlier."}, "[2]": {"test_system": "MDR-S. Enteritidis strains", "experiment": "MIC and MBC by broth microdilution with resazurin", "format": "cell-based, Salmonella Enteritidis", "conditions": "poultry droppings isolate", "source_text": "(§1) The characterised MDR field strains of EAEC (E1; E2; E3), S. Enteritidis (S1; S2; S3), and S. Typhimurium (ST1; ST2; ST3) maintained in the laboratory repository of Meat Safety Laboratory of ICAR-National Research Centre on Meat, Hyderabad re-validated using PCR assays were used to evaluate the in vitro antibacterial efficacy of phytochemicals. E. coli ATCC 25922 was used as the quality control strain.\n(§2) The antimicrobial efficacy of identified phytochemicals against multi-drug resistant EAEC and NTS strains was determined by estimating the minimum inhibitory concentration (MIC) and minimum bactericidal concentrations (MBC).\n(§3) Subsequent to the incubation period, resazurin dye (0.015 %) was added to all the wells to determine the dye reduction (pink) and thereby the bacterial inhibition."}, "[3]": {"test_system": "MDR-S. Typhimurium strains", "experiment": "MIC and MBC by broth microdilution with resazurin", "format": "cell-based, Salmonella Typhimurium", "conditions": "poultry droppings isolate", "source_text": "as §1, §2, §3"}, "Haemolytic assay": {"experiment": "Haemolytic assay", "format": "cell-based", "conditions": "read-out: Haemolysis; for hemolysis at 0.5 X MIC: 0.50X MIC", "method": "The haemolytic assay of the individual phytochemical was performed by measuring the release of haemoglobin from sheep and human ‘O’ erythrocytes at 540 nm. The percentage of haemolysis was calculated as (Asample – APBS)/ (ATriton−X – APBS) ×100, in which Asample is the absorbance of phytochemical treatment, APBS is the absorbance of untreated control with PBS, and ATriton−X is the absorbance of lysed cells treated with Triton X-100 measured at 540 nm."}, "MDR-EAEC strains [4]": {"test_system": "MDR-EAEC strains", "experiment": "Stability assay, pH (MIC)", "text": "as §4, §5"}, "[5]": {"test_system": "MDR-S. Enteritidis strains", "experiment": "Stability assay, pH (MIC)", "text": "as §4, §5"}, "MDR-EAEC strains [6]": {"test_system": "MDR-EAEC strains", "experiment": "Stability assay, cationic salts (MIC)", "text": "as §4, §5"}, "MDR-EAEC strains [7]": {"test_system": "MDR-EAEC strains", "experiment": "MIC and MBC by broth microdilution with resazurin", "format": "cell-based, enteroaggregative Escherichia coli", "conditions": "infant diarrhoea isolate", "source_text": "as §1, §2, §3"}, "[8]": {"test_system": "MDR-S. Enteritidis strains", "experiment": "Stability assay, cationic salts (MIC)", "text": "as §4, §5"}, "[9]": {"test_system": "MDR-S. Typhimurium strains", "experiment": "Stability assay, cationic salts (MIC)", "text": "as §4, §5"}, "[10]": {"conditions": "human 'O' erythrocytes, Human RBCs"}}, "note": "Where two headings read alike, the source gives them in different places.", "data": [{"compound": "Cc1ccc(C(C)C)c(O)c1", "note": "[Thymol, thymol]", "values": [{"measurement": "MIC at given pH", "setting": "[1]; pH 4, strain ST1", "result": 0.5, "unit": "µl/ml"}, {"measurement": "MIC at given pH", "setting": "[1]; pH 4, strain ST2", "result": 0.5, "unit": "µl/ml"}, {"measurement": "MIC at given pH", "setting": "[1]; pH 4, strain ST3", "result": 0.5, "unit": "µl/ml"}, {"measurement": "MIC at given pH", "setting": "[1]; pH 6, strain ST1", "result": 0.5, "unit": "µl/ml"}, {"measurement": "MIC at given pH", "setting": "[1]; pH 6, strain ST2", "result": 1.0, "unit": "µl/ml"}, {"measurement": "MIC at given pH", "setting": "[1]; pH 6, strain ST3", "result": 0.5, "unit": "µl/ml"}, {"measurement": "MIC at given pH", "setting": "[1]; pH 8, strain ST1", "result": 0.5, "unit": "µl/ml"}, {"measurement": "MIC at given pH", "setting": "[1]; pH 8, strain ST2", "result": 1.0, "unit": "µl/ml"}, {"measurement": "MIC at given pH", "setting": "[1]; pH 8, strain ST3", "result": 1.0, "unit": "µl/ml"}, {"measurement": "MBC", "setting": "[2]; S. Enteritidis (S1)", "result": 0.50, "unit": "µl/ml"}, {"measurement": "MIC", "setting": "[2]; S. Enteritidis (S1)", "result": 0.12, "unit": "µl/ml"}, {"measurement": "MBC", "setting": "[2]; S. Enteritidis (S2)", "result": 0.50, "unit": "µl/ml"}, {"measurement": "MIC", "setting": "[2]; S. Enteritidis (S2)", "result": 0.25, "unit": "µl/ml"}, {"measurement": "MBC", "setting": "[2]; S. Enteritidis (S3)", "result": 0.50, "unit": "µl/ml"}, {"measurement": "MIC", "setting": "[2]; S. Enteritidis (S3)", "result": 0.25, "unit": "µl/ml"}, {"measurement": "MBC", "setting": "[3]; S. Typhimurium (ST1)", "result": 0.50, "unit": "µl/ml"}, {"measurement": "MIC", "setting": "[3]; S. Typhimurium (ST1)", "result": 0.25, "unit": "µl/ml"}, {"measurement": "MBC", "setting": "[3]; S. Typhimurium (ST2)", "result": 0.50, "unit": "µl/ml"}, {"measurement": "MIC", "setting": "[3]; S. Typhimurium (ST2)", "result": 0.25, "unit": "µl/ml"}, {"measurement": "MBC", "setting": "[3]; S. Typhimurium (ST3)", "result": 0.50, "unit": "µl/ml"}, {"measurement": "MIC", "setting": "[3]; S. Typhimurium (ST3)", "result": 0.06, "unit": "µl/ml"}, {"measurement": "hemolysis at 0.25 X MIC", "setting": "Haemolytic assay; [10]", "result": 1.22, "unit": "%"}, {"measurement": "hemolysis at 0.5 X MIC", "setting": "Haemolytic assay; [10]", "result": 1.91, "unit": "%"}, {"measurement": "hemolysis at 1 X MIC", "setting": "Haemolytic assay; [10]", "result": 2.86, "unit": "%"}, {"measurement": "hemolysis at 2 X MIC", "setting": "Haemolytic assay; [10]", "result": 13.5, "unit": "%"}, {"measurement": "hemolysis at 4 X MIC", "setting": "Haemolytic assay; [10]", "result": 39.4, "unit": "%"}, {"measurement": "hemolysis at 8 X MIC", "setting": "Haemolytic assay; [10]", "result": 48.5, "unit": "%"}, {"measurement": "hemolysis at 0.25 X MIC", "setting": "Haemolytic assay; sheep erythrocytes, Sheep RBCs", "result": 0, "unit": "%"}, {"measurement": "hemolysis at 0.5 X MIC", "setting": "Haemolytic assay; sheep erythrocytes, Sheep RBCs", "result": 0.22, "unit": "%"}, {"measurement": "hemolysis at 1 X MIC", "setting": "Haemolytic assay; sheep erythrocytes, Sheep RBCs", "result": 1.49, "unit": "%"}, {"measurement": "hemolysis at 2 X MIC", "setting": "Haemolytic assay; sheep erythrocytes, Sheep RBCs", "result": 11.4, "unit": "%"}, {"measurement": "hemolysis at 4 X MIC", "setting": "Haemolytic assay; sheep erythrocytes, Sheep RBCs", "result": 21.6, "unit": "%"}, {"measurement": "hemolysis at 8 X MIC", "setting": "Haemolytic assay; sheep erythrocytes, Sheep RBCs", "result": 47.6, "unit": "%"}, {"measurement": "MIC at given pH", "setting": "MDR-EAEC strains [4]; pH 4, strain E1", "result": 0.25, "unit": "µl/ml"}, {"measurement": "MIC at given pH", "setting": "MDR-EAEC strains [4]; pH 4, strain E2", "result": 0.25, "unit": "µl/ml"}, {"measurement": "MIC at given pH", "setting": "MDR-EAEC strains [4]; pH 4, strain E3", "result": 0.25, "unit": "µl/ml"}, {"measurement": "MIC at given pH", "setting": "MDR-EAEC strains [4]; pH 6, strain E1", "result": 0.25, "unit": "µl/ml"}, {"measurement": "MIC at given pH", "setting": "MDR-EAEC strains [4]; pH 6, strain E2", "result": 0.25, "unit": "µl/ml"}, {"measurement": "MIC at given pH", "setting": "MDR-EAEC strains [4]; pH 6, strain E3", "result": 0.25, "unit": "µl/ml"}, {"measurement": "MIC at given pH", "setting": "MDR-EAEC strains [4]; pH 8, strain E1", "result": 0.5, "unit": "µl/ml"}, {"measurement": "MIC at given pH", "setting": "MDR-EAEC strains [4]; pH 8, strain E2", "result": 0.25, "unit": "µl/ml"}, {"measurement": "MIC at given pH", "setting": "MDR-EAEC strains [4]; pH 8, strain E3", "result": 0.5, "unit": "µl/ml"}, {"measurement": "MIC at given pH", "setting": "[5]; pH 4, strain S1", "result": 0.5, "unit": "µl/ml"}, {"measurement": "MIC at given pH", "setting": "[5]; pH 4, strain S2", "result": 0.5, "unit": "µl/ml"}, {"measurement": "MIC at given pH", "setting": "[5]; pH 4, strain S3", "result": 0.5, "unit": "µl/ml"}, {"measurement": "MIC at given pH", "setting": "[5]; pH 6, strain S1", "result": 0.5, "unit": "µl/ml"}, {"measurement": "MIC at given pH", "setting": "[5]; pH 6, strain S2", "result": 0.5, "unit": "µl/ml"}, {"measurement": "MIC at given pH", "setting": "[5]; pH 6, strain S3", "result": 0.5, "unit": "µl/ml"}, {"measurement": "MIC at given pH", "setting": "[5]; pH 8, strain S1", "result": 0.5, "unit": "µl/ml"}, {"measurement": "MIC at given pH", "setting": "[5]; pH 8, strain S2", "result": 1.0, "unit": "µl/ml"}, {"measurement": "MIC at given pH", "setting": "[5]; pH 8, strain S3", "result": 0.5, "unit": "µl/ml"}, {"measurement": "MIC with cationic salt", "setting": "MDR-EAEC strains [6]; 2 mM MgCl2, strain E1", "result": 0.25, "unit": "µl/ml"}, {"measurement": "MIC with cationic salt", "setting": "MDR-EAEC strains [6]; 2 mM MgCl2, strain E2", "result": 0.25, "unit": "µl/ml"}, {"measurement": "MIC with cationic salt", "setting": "MDR-EAEC strains [6]; 2 mM MgCl2, strain E3", "result": 0.25, "unit": "µl/ml"}, {"measurement": "Change of MIC values with cationic salts", "setting": "MDR-EAEC strains [6]; 150 mM NaCl and 2 mM MgCl2, MDR-EAEC strains", "result": "remained almost similar"}, {"measurement": "MIC with cationic salt", "setting": "MDR-EAEC strains [6]; 150 mM NaCl, strain E1", "result": 0.25, "unit": "µl/ml"}, {"measurement": "MIC with cationic salt", "setting": "MDR-EAEC strains [6]; 150 mM NaCl, strain E2", "result": 0.25, "unit": "µl/ml"}, {"measurement": "MIC with cationic salt", "setting": "MDR-EAEC strains [6]; 150 mM NaCl, strain E3", "result": 0.25, "unit": "µl/ml"}, {"measurement": "MBC", "setting": "MDR-EAEC strains [7]; EAEC (E1)", "result": 0.25, "unit": "µl/ml"}, {"measurement": "MIC", "setting": "MDR-EAEC strains [7]; EAEC (E1)", "result": 0.25, "unit": "µl/ml"}, {"measurement": "MBC", "setting": "MDR-EAEC strains [7]; EAEC (E2)", "result": 0.50, "unit": "µl/ml"}, {"measurement": "MIC", "setting": "MDR-EAEC strains [7]; EAEC (E2)", "result": 0.25, "unit": "µl/ml"}, {"measurement": "MBC", "setting": "MDR-EAEC strains [7]; EAEC (E3)", "result": 0.25, "unit": "µl/ml"}, {"measurement": "MIC", "setting": "MDR-EAEC strains [7]; EAEC (E3)", "result": 0.25, "unit": "µl/ml"}, {"measurement": "MIC with cationic salt", "setting": "[8]; 2 mM MgCl2, strain S1", "result": 0.5, "unit": "µl/ml"}, {"measurement": "MIC with cationic salt", "setting": "[8]; 2 mM MgCl2, strain S2", "result": 0.5, "unit": "µl/ml"}, {"measurement": "MIC with cationic salt", "setting": "[8]; 2 mM MgCl2, strain S3", "result": 0.5, "unit": "µl/ml"}, {"measurement": "MIC with cationic salt", "setting": "[8]; 150 mM NaCl, strain S1", "result": 0.5, "unit": "µl/ml"}, {"measurement": "MIC with cationic salt", "setting": "[8]; 150 mM NaCl, strain S2", "result": 0.5, "unit": "µl/ml"}, {"measurement": "MIC with cationic salt", "setting": "[8]; 150 mM NaCl, strain S3", "result": 1.0, "unit": "µl/ml"}, {"measurement": "MIC with cationic salt", "setting": "[9]; 2 mM MgCl2, strain ST1", "result": 0.5, "unit": "µl/ml"}, {"measurement": "MIC with cationic salt", "setting": "[9]; 2 mM MgCl2, strain ST2", "result": 1.0, "unit": "µl/ml"}, {"measurement": "MIC with cationic salt", "setting": "[9]; 2 mM MgCl2, strain ST3", "result": 0.5, "unit": "µl/ml"}, {"measurement": "MIC with cationic salt", "setting": "[9]; 150 mM NaCl, strain ST1", "result": 0.5, "unit": "µl/ml"}, {"measurement": "MIC with cationic salt", "setting": "[9]; 150 mM NaCl, strain ST2", "result": 0.5, "unit": "µl/ml"}, {"measurement": "MIC with cationic salt", "setting": "[9]; 150 mM NaCl, strain ST3", "result": 0.5, "unit": "µl/ml"}]}]}
